Test results as given in patent US11530385B2, “Hormone responsive tissue culture system and uses thereof” (Whitehead Institute for Biomedical Research, priority 2007, dated 2022).

Legend:
[1] = tested on: BPEC cells; test: in vitro growth inhibition by estrogen antagonist, BPEC cells; format: cell-based, human; settings: data not shown
Text: (§1) Expression of CK18 and BER-Ep4 both confirm the adenocarcinoma features and exclude a squamous tumor. E-cadherin excludes a mesenchymal tumor. BPLER xenografts express progesterone receptor, which is consistent with the notion that BPLER xenografts are hormone-responsive. This was confirmed by experiments in which estrogen-progesterone treatment of mice increased subject tumor size approximately two-fold compared to untreated mice. […] Similar tumor xenografts from cells cultured in the MEGM media was negative for progesterone receptor expression and the in vitro growth inhibition of the cells with ICI 182,780 was less than 20% (data not shown).

[2] = tested on: BPLE cells; test: in vitro growth inhibition by estrogen antagonist, BPLE cells; format: cell-based, human; settings: data not shown
Text: as §1

[3] = tested on: cells cultured in the MEGM media; test: in vitro growth inhibition by estrogen antagonist, cells cultured in the MEGM media; format: cell-based, human; settings: data not shown
Text: as §1

[4] = tested on: BPE cells; test: in vitro growth inhibition by estrogen antagonist, BPE cells; format: cell-based, human; settings: data not shown
Text: as §1

[5] = tested on: BPLER xenograft tumors; test: hormone responsiveness of BPLER xenograft tumors in mice; format: in vivo; settings: estrogen treated animals
Text: In one respect, the histology of tumors arising from BPLER is very similar, if not identical to human ductal breast carcinoma. There is prominent luminal marker CK18 expression in BPLER cells and tumors. There is also prominent expression of E-cadherin, a marker indicating polarization of cells. Morphology wise, BPLER xenografts form glandular structures similar to those seen in human tumors. BPLER xenografts into mammary fat pads are invasive into adjacent skeletal muscle, and cause a desmoplastic reaction. BPLER xenografts also express progesterone receptors based on immunohistological staining of xenograft tumor samples. In addition, BPLER tumor sizes respond to estrogen treatment, in that xenograft tumors weighed about 70-100% more in estrogen treated animals than in control animals. BPLER tumors spread within the breast tissue of mice, and the multifocal growth is consistent with lymphovascular invasion and spread of tumors. […]
Analysis of tumorigenicity and metastasis: Single-cell suspensions were prepared in a WIT:Matrigel (1:1) mixture and injected in 25 μL (orthotopic) and 100 μl (subcutaneous) volumes. […] Metastasis to lungs and other tissues was analyzed initially under a dissecting microscope (Leica) in fresh tissues, followed by microscopic examination of hematoxylin-eosin and immunostained sections of formalin-fixed and paraffin-embedded tissues. […]

Row | Molecule | growth inhibition [1] | growth inhibition [2] | in vitro growth inhibition [3] | growth inhibition [4] | xenograft tumor weight increase in treated animals vs control animals [5]
1 | C[C@]12CC[C@@H]3c4ccc(O)cc4C[C@@H](CCCCCCCCC[S+]([O-])CCCC(F)(F)C(F)(F)F)[C@H]3[C@@H]1CC[C@@H]2O (some centres unmarked) [ICI 182,780] | > 80% | > 80% | less than 20% | > 80% | 
2 | estrogen |  |  |  |  | 70-100%
